Measurements taken from US10710968B2 (Hadasit Medical Research Services and Development Ltd., priority 2016, dated 2020).

Assays:
[1] = test system: NCI-H1975 cells (EGFR L858R + T790M); assay: Cell growth inhibition, methylene blue assay, NCI-H1975; assay type: cell-based, human; conditions: NCI-H1975, Double (L858R + T790M), 72 hours, mean±SD
Procedure: (§1) NCI-H1975 and HCC827 were obtained from the ATCC. QG56 cells were obtained from Prof. Alexander Levitzki's lab, The Silberman Institute of Life Sciences, the Hebrew University, Jerusalem. […] All media were supplemented with fetal bovine serum (FBS, (10%)) and antibiotics (penicillin 10^4 units/L, streptomycin 10 mg/L) (BI, Israel).
(§2) Four human NSCLC cell lines were selected: QG56, HCC827, NCI-H3255 and NCI-H1975. These cell lines harbor the prevailing EGFR variants identified in NSCLC patients, including the wild-type receptor (QG56 cells) and the two most common activating mutations in the TK domain of the receptor: an exon 19 deletion (ΔE746-A750) (HCC827 cells) and the L858R point mutation in exon 21 (NCI-H3255). NCI-H1975 cells were also selected, since on top of the activating L858R point mutation, these cells harbor the secondary T790M mutation in exon 20, which confers resistance to TKI-therapy.
(§3) The median inhibitory concentration (IC50) of the tested compound for cell growth of each cell line was then calculated using GraphPad Prism 5.0 software. Results are presented as mean±SD.

QG56 cells (wt EGFR) = assay: Cell growth inhibition, methylene blue assay, QG56; assay type: cell-based, human; conditions: QG56, None (wt EGFR), 72 hours, mean±SD
Procedure: as §1, §2, §3

[2] = test system: NCI-H3255 cells (EGFR L858R point mutation); assay: Cell growth inhibition, methylene blue assay, NCI-H3255; assay type: cell-based, human; conditions: NCI-H3255, Activating (L858R point mutation), 72 hours, mean±SD
Procedure: as §1, §2, §3

[3] = Stability of the final formulation in solution (radio-TLC and HPLC); assay type: physicochemical; conditions: final formulation (ethanol/isotonic saline)
Procedure: In brief, a solution of ethylene 1,2-(bis) tosylate (11-13 mg) dissolved in anhydrous MeCN ([…]) was added to the dried [^18F]fluoride. The reaction is heated to 120° C. while stirring for 10 minutes, and the reaction mixture was thereafter cooled to 50° C. The ^18F-fluoroethyltosylate was then further diluted with 1 mL MeCN and transferred to a second reactor that was pre-stirred and heated under argon stream for 5 minutes with 9-11 mg of desmethylerlotinib dissolved in 0.6 mL of DMF and 6-8 mg of NaH. […]
The radiochemical purity was determined using analytical HPLC equipped with C18 analytical Luna column (5 μm, 4.6 mm>250 mm, Luna, phenomenex, Torrance, Calif., USA), with a variable wavelength UV detector operated at λ=254 nm, and a radioactivity detector with NaI crystals, and was routinely greater than 98%. […] Solvent residues were analyzed by GC, using a 1 μL injection of the final product, and compared to a standard solution containing 0.04% acetonitrile and 0.5% acetone. […]

QG56 tumor = assay: PET/CT scans of QG56 tumor-bearing mice; assay type: in vivo; conditions: QG56 tumors, 60 minutes after i.v. injection
Procedure: (§4) Dynamic (1 hour) PET scans are performed using Inveon™ MM PET-CT small animal-dedicated scanner (Siemens Medical Solutions, USA). […] Using image analysis tools, volume of interests (VOIs) are drawn for selected organs based on the PET and CT images, and the kinetics of radioactivity distribution in vivo (time-activity curves, (TACs)) is determined for these organs, and primarily for the NSCLC xenografts. The standardized uptake values (SUVs) of each radiolabeled compound in tumors are calculated and compared between the different tumors.
(§5) In additional PET/CT studies, five QG56 (erlotinib-insensitive) and five HCC827 (erlotinib-sensitive) tumor-bearing mice were scanned for 60 minutes following i.v. injection of [^18F]6-O-FEE (7.14±0.7 Mbq).

HCC827 tumor = assay: PET/CT scans of HCC827 tumor-bearing mice; assay type: in vivo
Procedure: as §4, §5

Row | IC50 [1] [µM] | IC50 [2] [µM] | tumor SUV (QG56 tumor) | higher uptake in HCC827 tumors compared to QG56 tumors (HCC827 tumor; 60 minutes after i.v. injection, mice, p=0.0072) [fold] | tumor SUV (HCC827 tumor; HCC827 tumor-bearing mice, erlotinib in excess (6.1±0.3 mg/kg) 10 minutes prior to injection) | tumor SUV (HCC827 tumor; HCC827 tumor-bearing mice, without erlotinib pre-administration (blocking comparison)) | tumor SUV (HCC827 tumor; HCC827 tumors, 60 minutes after i.v. injection, mice) | higher uptake in HCC827 tumor compared to NCI-H1975 tumor (HCC827 tumor; preliminary PET/CT study, i.v. injection, 60 minutes scan, mice) | SMILES | IC50 (QG56 cells (wt EGFR)) [µM] | stability in solution [3] | reduction of tumor SUV by erlotinib in excess (HCC827 tumor; HCC827 tumor-bearing mice, erlotinib 6.1±0.3 mg/kg 10 minutes prior, p=0.018)
1 | 3.6 ± 1 | 0.033 ± 0.04 |  |  |  |  |  |  | C#Cc1cccc(Nc2ncnc3cc(OCCOC)c(OCCF)cc23)c1 [6-O-FEE, 6-O-fluoroethylerlotinib] | 14.4 ± 5 |  | 
2 |  |  | 0.28 | 2.5 | 0.414 | 0.704 | 0.70 | 2.5-3 fold | C#Cc1cccc(Nc2ncnc3cc(OCCOC)c(OCC[18F])cc23)c1 [[^18F]6-O-FEE, [^18F]6-fluoroethylerlotinib] |  | remained stable in solution for over four hours | about 40%
